Experimental data from patent publication US7763463B2, “Use of cyclic AMP and ascorbic acid to produce dopaminergic neurons from embryonic stem cells” (Geron Corporation, priority 2000, dated 2010).

Tests used:
Format in all cases: cell-based, human
[1] = system: hES cell derived neurons; experiment: Fura-2 imaging of calcium flux; details: of the 53 cells tested; cells responding to GABA, acetylcholine, ATP and elevated potassium; 0.5 mM neurotransmitter, ATP 10 μM
Procedure: Standard fura-2 imaging of calcium flux was used to investigate the functional properties of the hES cell derived neurons. Neurotransmitters studied included GABA, glutamate (E), glycine (G), elevated potassium (50 mM K^+ instead of 5 mM K^+), ascorbic acid (control), dopamine, acetylcholine (ACh) and norepinephrine. The solutions contained 0.5 mM of the neurotransmitter (except ATP at 10 μM) in rat Ringers (RR) solution: 140 mM NaCl, 3 mM KCl, 1 mM MgCl2, 2 mM CaCl2, 10 mM HEPES buffer, and 10 mM glucose. External solutions were set to pH 7.4 using NaOH. Cells were perfused in the recording chamber at 1.2-1.8 mL/min, and solutions were applied by bath application using a 0.2 mL loop injector located ˜0.2 mL upstream of the bath import. Transient rises in calcium were considered to be a response if the calcium levels rose above 10% of the baseline value within 60 sec of application, and returned to baseline within 1-2 min.

[2] = system: embryoid bodies from hES cells; experiment: Embryoid bodies with or without retinoic acid, then NT-3/BDNF; MAP-2 staining; details: embryoid bodies maintained in 10 μM RA 4 days; then mitogens, then 10 ng/mL NT-3 and BDNF; without RA ~5%
Procedure: To generate terminally differentiated neurons, the first stage of differentiation was induced by forming embryoid bodies in FBS medium with or without 10 μM retinoic acid (RA). After 4 days in suspension, embryoid bodies were plated onto fibronectin-coated plates in defined medium supplemented with 10 ng/mL human EGF, 10 ng/mL human bFGF, 1 ng/mL human PDGF-AA, and 1 ng/mL human IGF-1. The embryoid bodies adhered to the plates, and cells began to migrate onto the plastic, forming a monolayer.
The cell populations were further differentiated by replating the cells in a medium containing none of the mitogens, but containing 10 ng/mL Neurotrophin-3 (NT-3) and 10 ng/mL brain-derived neurotrophic factor (BDNF). Neurons with extensive processes were seen after about 7 days. […] GaIC positive cells were identified, but the cells were large and flat rather than having complex processes.

[3] = system: hES cells of the H7 line; experiment: Direct differentiation: noggin, follistatin and retinoic acid (FIG. 6); details: 15 days with Treatment D, cAMP 700 μg; antagonists used for varying time periods
Text: Noggin is apparently important at about the 1 week point (days 5 to 8), while follistatin is important at around the 2 week point (days 13 to 15), maximizing production of mature neurons rather than small neurites.
Virtually no β-tubulin positive neurons were formed in the absence of noggin or follistatin. […] It is hypothesized that initial noggin/follistatin induction generates a neural progenitor cell, which subsequently can be induced to form neurons by the addition of other factors.
Cells were differentiated according to treatment F as previously (left 2 bars) or omitting retinoic acid (right 2 bars).

[4] = system: hES cells; experiment: Effect of neurotrophins on direct differentiation, β-tubulin positive cell count; details: 7 days of differentiation; BDNF 10 ng/mL, neurotrophin-3 1 ng/mL
Procedure: The effect of several members of the neurotrophin growth factor family was examined. hES cells were differentiated by harvesting with collagenase, dissociating, and reseeding onto poly-ornithine coated cover slips. The cells were plated into DMEM/F12+N2+10% FBS overnight. The following day, the serum was removed from the medium and replaced with 10 ng/mL human bFGF and the growth factor being tested. After 24 hours, bFGF was removed from the medium. These cultures were fed every other day. They were fixed after 7 days of differentiation and immunostained for analysis. The number of neurons was evaluated by counting cells positive for β-tubulin. Cultures maintained in the presence of 10 ng/mL brain derived neurotrophic factor (BDNF) formed approximately 3-fold more neurons than the control cultures. Cultures maintained in neurotrophin-3 (1 ng/mL) formed approximately 2-fold more neurons than control cultures.

## Nc1ncnc2c1ncn2[C@@H]1O[C@H](COP(=O)(O)OP(=O)(O)OP(=O)(O)O)[C@@H](O)[C@H]1O [ATP]
[1]
  cells that responded (calcium rise): 26

## NCCCC(=O)O [GABA, γ-amino butyric acid]
[1]
  cells that responded (calcium rise): 26

## CC(=O)OCC[N+](C)(C)C [acetylcholine]
[1]
  cells that responded (calcium rise): 26

## CC1=C(/C=C/C(C)=C/C=C/C(C)=C/C(=O)O)C(C)(C)CCC1 [retinoic acid]
[2]
  MAP-2 positive cells: ~26%

B1: noggin: TGF-β superfamily antagonist (protein, UniProt Q13253 28-232, looked up)
Noggin: QHYLHIRPAPSDNLPLVDLIEHPDPIFDPKEKDLNETLLRSLLGGHYDPGFMATSPPEDRPGGGGGAAGGAEDLAELDQLLRQRPSGAMPSEIKGLEFSEGLAQGKKQRLSKKLRRKLQMWLWSQTFCPVLYAWNDLGSRFWPRYVKVGSCFSKRSCSVPEGMVCKPSKSVHLTVLRWRCQRRGGQRCGWIPIQYPIISECKCSC
[3]
  contribution to neuron differentiation: contribute to neuron differentiation, and work synergistically

B2: neurotrophin-3: member of the neurotrophin growth factor family (protein, UniProt P20783 139-257, looked up)
Neurotrophin-3: YAEHKSHRGEYSVCDSESLWVTDKSSAIDIRGHQVTVLGEIKTGNSPVKQYFYETRCKEARPVKNGCRGIDDKHWNSQCKTSQTYVRALTSENNKLVGWRWIRIDTSCVCALSRKIGRT
[4]
  neurons formed (β-tubulin positive cells) relative to control cultures: approximately 2 fold

B3: BDNF: brain derived neurotrophic factor, member of the neurotrophin growth factor family (protein, UniProt P23560 19-247, looked up)
Neurotrophic factor BDNF …: APMKEANIRGQGGLAYPGVRTHGTLESVNGPKAGSRGLTSLADTFEHVIEELLDEDQKVRPNEENNKDADLYTSRVMLSSQVPLEPPLLFLLEEYKNYLDAANMSMRVRRHSDPARRGELSVCDSISEWVTAADKKTAVDMSGGTVTVLEKVPVSKGQLKQYFYETKCNPMGYTKEGCRGIDKRHWNSQCRTTQSYVRALTMDSKKRIGWRFIRIDTSCVCTLTIKRGR
[4]
  neurons formed (β-tubulin positive cells) relative to control cultures: approximately 3 fold

B4: follistatin: TGF-β superfamily antagonist (protein, UniProt P19883 30-344, looked up)
Follistatin: GNCWLRQAKNGRCQVLYKTELSKEECCSTGRLSTSWTEEDVNDNTLFKWMIFNGGAPNCIPCKETCENVDCGPGKKCRMNKKNKPRCVCAPDCSNITWKGPVCGLDGKTYRNECALLKARCKEQPELEVQYQGRCKKTCRDVFCPGSSTCVVDQTNNAYCVTCNRICPEPASSEQYLCGNDGVTYSSACHLRKATCLLGRSIGLAYEGKCIKAKSCEDIQCTGGKKCLWDFKVGRGRCSLCDELCPDSKSDEPVCASDNATYASECAMKEAACSSGVLLEVKHSGSCNSISEDTEEEEEDEDQDYSFPISSILEW
[3]
  contribution to neuron differentiation: contribute to neuron differentiation, and work synergistically
